Experimental data taken from ChEMBL document CHEMBL1287809, “Ixorapeptide I and ixorapeptide II, bioactive peptides isolated from Ixora coccinea” (Bioorg Med Chem Lett, 2010).
≈ marks a conversion by molar mass, not a printed value. Where a SMILES comes first, the peptide text is derived from it. The star is where a group is joined. Fmoc = O=C(OCC1c2ccccc2-c2ccccc21)*

Assays:
[1] = Antiinflammatory activity in human neutrophils assessed as inhibition of FMLP/CB-induced elastase release; type: functional, cell-based, Neutrophil; details: for IC50: Homo sapiens, Neutrophil
[2] = Antiinflammatory activity in human neutrophils assessed as inhibition of FMLP/CB-induced superoxide anion release; type: functional, cell-based; details: Neutrophil
[3] = Antiinflammatory activity in human neutrophils assessed as inhibition of FMLP/CB-induced elastase release at 10 ug/ml; type: functional; details: Neutrophil
Neutrophil = test: Ratio of compound IC50 to PMSF IC50 for antiinflammatory activity in human neutrophils assessed as inhibition of FMLP/CB-induced elastase release; type: functional
[4] = Antiaggregatory activity in human platelets assessed as inhibition of collagen-induced platelet aggregation by aggregometry; type: functional, cell-based
[5] = Antiaggregatory activity in human platelets assessed as inhibition of thrombin-induced platelet aggregation by aggregometry; type: functional, cell-based
[6] = Antiinflammatory activity in human neutrophils assessed as inhibition of FMLP/CB-induced superoxide anion release at 10 ug/ml; type: functional; details: Neutrophil
HepG2 = test: Cytotoxicity against human HepG2 cells by MTT assay; type: functional, cell-based
[7] = Cytotoxicity against human Hep3B cells by MTT assay; type: functional, cell-based, Hep 3B2
Ca9-22 = test: Cytotoxicity against human Ca9-22 cells by MTT assay; type: functional, cell-based
A549 = test: Cytotoxicity against human A549 cells by MTT assay; type: functional, cell-based
MCF7 = test: Cytotoxicity against human MCF7 cells by MTT assay; type: functional, cell-based
MDA-MB-231 = test: Cytotoxicity against human MDA-MB-231 cells by MTT assay; type: functional, cell-based
[8] = Antiinflammatory activity in human Neutrophil assessed as inhibition of superoxide anion release at 10 ug/ml; type: functional, cell-based
[9] = Antiinflammatory activity in human Neutrophil assessed as inhibition of elastase release at 10 ug/ml; type: functional, cell-based

Row | IC50 [4] [mg/L] | IC50 [5] [mg/L] | Compound | IC50 (HepG2) [mg/L] | IC50 [7] [mg/L] | IC50 (Ca9-22) [mg/L] | IC50 (A549) [mg/L] | IC50 (MDA-MB-231) [mg/L] | other results
1 | 13.6 (≈ 75.4 µM) | > 50 | CC(=O)Oc1ccccc1C(=O)O [ASPIRIN] | – | – | – | – | – | –
2 | 41.7 (≈ 217 µM) | > 50 | COc1cc2ccc(=O)oc2cc1O [SCOPOLETIN] | – | – | – | – | – | –
3 | 29.5 (≈ 59 µM) | 20.5 (≈ 41 µM) | COC(=O)[C@H](Cc1ccccc1)NC(=O)[C@@H](NC(=O)OCC1c2ccccc2-c2ccccc21)C(C)C [IXORAPEPTIDE I] (Fmoc-Val-Phe-OMe) | > 20 | 3.36 (≈ 6.71 µM) | 20 (≈ 40 µM) | > 20 | > 20 | IC50 (MCF7): > 20 mg/L
4 | 3.55 (≈ 12.4 µM) | > 50 | O=c1c(O)c(-c2ccc(O)cc2)oc2cc(O)cc(O)c12 [KAEMPFEROL] | > 20 | 17.7 (≈ 62 µM) | > 20 | > 20 | > 20 | IC50 (MCF7): > 20 mg/L
5 | 22.2 (≈ 76.5 µM) | > 50 | Oc1cc(O)c2c(c1)O[C@H](c1ccc(O)c(O)c1)[C@H](O)C2 [(-)-EPICATECHIN] | – | – | – | – | – | –
6 | 34.5 (≈ 75.6 µM) | > 50 | C[C@H]1[C@H](C)CC[C@]2(C(=O)O)CC[C@]3(C)C(=CC[C@@H]4[C@@]5(C)CC[C@H](O)C(C)(C)[C@@H]5CC[C@]43C)[C@H]12 [URSOLIC ACID] | – | – | – | – | – | IC50 [2]: 0.29 mg/L (≈ 0.635 µM); IC50 [1]: 0.31 mg/L (≈ 0.679 µM)
7 | 34.8 (≈ 80.4 µM) | > 50 | C[C@H]1O[C@H](Oc2cc(O)c3c(=O)c(O)c(-c4ccc(O)cc4)oc3c2)[C@@H](O)[C@@H](O)[C@@H]1O | – | – | – | – | – | –
8 | 27.6 (≈ 95.3 µM) | > 50 | Oc1cc(O)c2c(c1)O[C@H](c1ccc(O)c(O)c1)[C@@H](O)C2 [CIANIDANOL] | – | – | – | – | – | –

Second part, the compound before the results:

Row | Compound | IC50 [4] [mg/L] | IC50 [5] [mg/L] | IC50 (HepG2) [mg/L] | IC50 [7] [mg/L] | IC50 (Ca9-22) [mg/L] | IC50 (A549) [mg/L] | IC50 (MDA-MB-231) [mg/L] | other results
9 | Oc1ccc([C@]23Oc4cc(O)cc(O)c4[C@H](c4c(cc(O)c5c4O[C@@H](c4ccc(O)c(O)c4)[C@@H](O)C5)O2)[C@H]3O)cc1 | – | – | – | – | – | – | – | inhibition (INH) [1]: 2.5%
10 | CCCCCCCCCCCCCCCCCCCC(=O)OCC(O)CO (centres undefined) | – | – | – | – | – | – | – | IC50 [2]: 2.47 mg/L (≈ 6.39 µM); inhibition at 10 µg/mL [3]: 41.8%
11 | CC[C@H](C)[C@H](NC(=O)C(NC(=O)[C@H](Cc1ccccc1)N(C)C)C(C(C)C)n1ccc2ccccc21)C(=O)O (some centres undefined) [IXORAPEPTIDE II] | – | – | – | – | – | – | – | IC50 [2]: 0.21 mg/L (≈ 0.393 µM); IC50 [1]: 0.27 mg/L (≈ 0.505 µM); Ratio IC50 (Neutrophil): 73
12 | c1ccc2c(c1)[I+]c1ccccc1-2 [DIPHENYLENEIODONIUM] | – | – | – | – | – | – | – | IC50 [2]: 0.35 mg/L
13 | C[C@@H]1O[C@@H](Oc2cc(O)c3c(=O)c(O[C@@H]4O[C@@H](C)[C@H](O)[C@@H](O)[C@H]4O)c(-c4ccc(O)cc4)oc3c2)[C@H](O)[C@H](O)[C@H]1O [KAEMPFERITRIN] | – | – | – | – | – | – | – | inhibition at 10 µg/mL [6]: 8.27%; inhibition at 10 µg/mL [3]: 12.5%
14 | C[C@@]1(CO)CCC[C@]2(C)[C@@H]1CC[C@]13C[C@H](CC[C@H]12)[C@@H](C(=O)O)C3 | – | – | – | – | – | – | – | inhibition at 10 µg/mL [6]: 31.8%; inhibition at 10 µg/mL [3]: 15.6%
15 | CC(=O)OC[C@]1(C)CCC[C@]2(C)[C@@H]1CC[C@]13C[C@H](CC[C@H]12)[C@@H](C(=O)O)C3 | – | – | – | – | – | – | – | IC50 [2]: 5.11 mg/L (≈ 14.1 µM); inhibition at 10 µg/mL [3]: 44.7%
16 | O=S(=O)(F)Cc1ccccc1 [PHENYLMETHYLSULFONYLFLUORIDE] | – | – | – | – | – | – | – | IC50 [1]: 19.9 mg/L (≈ 114 µM)
17 | CC1(C)CC[C@]2(C(=O)O)CC[C@]3(C)C(=CC[C@@H]4[C@@]5(C)CCC(=O)C(C)(C)[C@@H]5CC[C@]43C)[C@@H]2C1 [OLEANONIC ACID] | – | – | > 20 | > 20 | 18 (≈ 39.7 µM) | > 20 | > 20 | IC50 (MCF7): > 20 mg/L
18 | C=C(C)[C@@H]1CC[C@]2(C(=O)O)CC[C@]3(C)[C@H](CC[C@@H]4[C@@]5(C)CCC(=O)C(C)(C)[C@@H]5CC[C@]43C)[C@@H]12 [BETUNOLIC ACID] | 44.7 (≈ 98.3 µM) | > 50 | 4.32 (≈ 9.5 µM) | 13.8 (≈ 30.4 µM) | 14.5 (≈ 31.8 µM) | 8.93 (≈ 19.6 µM) | > 20 | IC50 (MCF7): 19.3 mg/L (≈ 42.5 µM); IC50 [8]: 16.8 mg/L (≈ 36.9 µM); IC50 [9]: 128 mg/L (≈ 281 µM)
19 | O=c1cc(-c2ccc(O)c(O)c2)oc2cc(O)cc(O)c12 [LUTEOLIN] | 2.56 (≈ 8.94 µM) | > 50 | 7.36 (≈ 25.7 µM) | 8.03 (≈ 28.1 µM) | 8.55 (≈ 29.9 µM) | 10.2 (≈ 35.7 µM) | 9.65 (≈ 33.7 µM) | IC50 (MCF7): 9.5 mg/L (≈ 33.2 µM)
20 | C=C(C)[C@@H]1CC[C@]2(C)CC[C@]3(C)[C@H](CC[C@@H]4[C@@]5(C)CC[C@H](O)C(C)(C)[C@@H]5CC[C@]43C)[C@@H]12 [LUPEOL] | – | – | 19.8 (≈ 46.4 µM) | 18.8 (≈ 44.1 µM) | 16.8 (≈ 39.3 µM) | > 20 | > 20 | IC50 (MCF7): > 20 mg/L
21 | COc1cccc2c1C(=O)c1c(O)c3c(c(O)c1C2=O)C[C@@](O)(C(=O)CO)C[C@@H]3O[C@H]1C[C@H](N)[C@H](O)[C@H](C)O1 [DOXORUBICIN] | – | – | 0.23 (≈ 0.423 µM) | 0.42 (≈ 0.773 µM) | 14.5 (≈ 26.6 µM) | 0.63 (≈ 1.16 µM) | 1.32 (≈ 2.43 µM) | –
